Laboratory results taken from ChEMBL document CHEMBL4680246, “Design, synthesis and biological evaluation of novel O-carbamoyl ferulamide derivatives as multi-target-directed ligands for the treatment of Alzheimer's disease” (Eur J Med Chem, 2020).
The source made the active and inactive calls. No cut-off for these calls is given here.

Columns and labels:
Mus musculus [1] = test: Improvement in brain cholinergic activity in scopolamine-induced mouse model of amnesia assessed as change in AChE vitality at 6 mg/kg (reference value: 0.105 U/mg); format: functional
[2] = Acute toxicity in Kunming mouse assessed as piloerection at 250 to 1000 mg/kg measured after 24 hrs; format: organism-based; settings: in vivo, dose 250-1000 mg/kg
[3] = Toxicity in Zebrafish assessed as mortality at 100 ug/ml relative to control; set-up: species or system Danio rerio; settings: in vivo, at 100 µg/mL
[4] = Toxicity in Zebrafish assessed as pericardial edema at 6.25 ug/ml relative to control; set-up: species or system Danio rerio; settings: in vivo, at 6.25 µg/mL
Mus musculus [5] = test: Improvement in brain cholinergic activity in scopolamine-induced mouse model of amnesia assessed as reduction in AChE vitality at 5 to 10 mg/kg; format: functional, organism-based; settings: dose 5-10 mg/kg
Danio rerio [6] = organism: Danio rerio; test: Protection against amyloid beta (1 to 42)-induced zebrafish model of vascular injury assessed as reduction in injury rate; format: functional, organism-based
[7] = Toxicity in AlCl3-induced Zebrafish model of Alzheimer's disease assessed as mortality at 25 ug/ml relative to control; set-up: species or system Danio rerio; settings: in vivo, at 25 µg/mL
[8] = Permeability of compound by PAMPA-BBB assay; format: ADME; settings: read-out: permeability
[9] = Toxicity in AlCl3-induced Zebrafish model of Alzheimer's disease assessed as mortality at 5 ug/ml relative to control; set-up: species or system Danio rerio; settings: in vivo, at 5 µg/mL
[10] = Acute toxicity in Kunming mouse assessed as dyspnea at 250 to 1000 mg/kg; format: organism-based; settings: in vivo, dose 250-1000 mg/kg
[11] = Effect on tau protein level in mouse HT22 cells transfected with pRK5-GFP-Tau plasmid assessed as fluorescence intensity at 2.5 uM by fluorescence microscopy (Rvb <= 40.9); format: functional, HT-22
[12] = Acute toxicity in Kunming mouse assessed as damage in liver at 50 to 1000 mg/kg measured after 7 days; format: organism-based; settings: in vivo, 168 h, dose 50-1000 mg/kg, time 7 day
[13] = Toxicity in Zebrafish assessed as mortality at 3.125 ug/ml relative to control; set-up: species or system Danio rerio; settings: in vivo, at 3.125 µg/mL
[14] = Toxicity in Zebrafish assessed as small or misshapen brain at 6.25 ug/ml relative to control; format: tissue-based, Danio rerio; settings: in vivo, at 6.25 µg/mL
[15] = Drug metabolism in rat intestinal flora by HPLC analysis; format: ADME, tissue-based, Intestine
Danio rerio [16] = organism: Danio rerio; test: Protection against amyloid beta (1 to 42)-induced zebrafish model of vascular injury assessed as reduction in vascular injury at 1 ug/ml relative to control; format: functional; settings: dose 1 µg/ml
[17] = Effect on APP protein level in mouse HT22 cells transfected with pEGFP-N1-APP plasmid assessed as fluorescence intensity at 20 uM by fluorescence microscopy (reference value: 33.2); format: functional, HT-22
[18] = Effect on tau protein level in mouse HT22 cells transfected with pRK5-GFP-Tau plasmid assessed as fluorescence intensity at 10 uM by fluorescence microscopy (Rvb <= 40.9); format: functional, HT-22
[19] = Selectivity index, ratio of IC50 for Electrophorus electricus AChE to IC50 for equine serum BuChE
SH-SY5Y = test: Neuroprotective activity against amyloid beta (1 to 42)-induced cytotoxicity in human SH-SY5Y cells assessed as cell viability at 10 uM by MTT assay (reference value: 50.3%); format: functional; settings: read-out: Activity
Danio rerio [20] = organism: Danio rerio; test: Antialzheimer activity in AlCl3-induced Zebrafish model of Alzheimer's disease assessed as increase in motility speed at 1 ug/ml relative to control; format: functional; settings: dose 1 µg/ml
[21] = Toxicity in AlCl3-induced Zebrafish model of Alzheimer's disease assessed as mortality at 2.5 ug/ml relative to control; set-up: species or system Danio rerio; settings: in vivo, at 2.5 µg/mL
Mus musculus [22] = test: Improvement in brain cholinergic activity in scopolamine-induced mouse model of amnesia assessed as change in AChE vitality at 20 mg/kg (reference value: 0.105 U/mg); format: functional
[23] = Drug metabolism in rat liver microsomes by HPLC analysis; format: ADME, Microsome
[24] = Cytotoxicity against mouse HT22 cells assessed as cell viability at 80 uM by MTT assay relative to control; format: cell-based, HT-22; settings: read-out: Activity
[25] = Cytotoxicity against human LO2 cells assessed as cell viability at 50 uM by MTT assay relative to control; format: cell-based, L02; settings: read-out: Activity
Mus musculus [26] = organism: Mus musculus; test: Improvement in brain cholinergic activity in scopolamine-induced mouse model of amnesia assessed as increase in ChAT vitality; format: functional, organism-based
Danio rerio [27] = organism: Danio rerio; test: Antialzheimer activity in AlCl3-induced Zebrafish model of Alzheimer's disease assessed as increase in motility distance at 1 ug/ml relative to control; format: functional; settings: dose 1 µg/ml
Acetylcholinesterase [28] = target: Acetylcholinesterase (Homo sapiens, UniProt P22303); test: Inhibition of human erythrocytes AChE using acetylcholine iodide as substrate incubated for 15 mins by Ellman's method
[29] = Effect on APP protein level in mouse HT22 cells transfected with pEGFP-N1-APP plasmid assessed as fluorescence intensity at 2.5 uM by fluorescence microscopy (reference value: 33.2); format: functional, HT-22
Cholinesterase [30] = target: T1, Cholinesterase (Homo sapiens, UniProt P06276); test: Inhibition of human serum BuChE using acetylcholine iodide as substrate incubated for 15 mins by Ellman's method
[31] = Acute toxicity in Kunming mouse assessed as hypokinesia at 250 to 1000 mg/kg; format: organism-based; settings: in vivo, dose 250-1000 mg/kg
[32] = Toxicity in Zebrafish assessed as mortality at 6.25 ug/ml relative to control; set-up: species or system Danio rerio; settings: in vivo, at 6.25 µg/mL
[33] = Toxicity in Zebrafish assessed as slow blood flow at 6.25 ug/ml relative to control; format: tissue-based, Danio rerio; settings: at 6.25 µg/mL
[34] = Toxicity in Zebrafish assessed as mortality at 12.5 ug/ml relative to control; set-up: species or system Danio rerio; settings: in vivo, at 12.5 µg/mL
[35] = Toxicity in Zebrafish assessed as small or misshapen eyes at 6.25 ug/ml relative to control; set-up: species or system Danio rerio; settings: in vivo, at 6.25 µg/mL
[36] = Effect on tau protein level in mouse HT22 cells transfected with pRK5-GFP-Tau P301L plasmid assessed as fluorescence intensity at 5 uM by fluorescence microscopy (reference value: 33.6); format: functional, HT-22
[37] = Toxicity in Zebrafish assessed as small or misshapen jaw at 6.25 ug/ml relative to control; set-up: species or system Danio rerio; settings: in vivo, at 6.25 µg/mL
Danio rerio [38] = organism: Danio rerio; test: Protection against amyloid beta (1 to 42)-induced zebrafish model of vascular injury assessed as vascular injury rate at 0.33 ug/ml (reference value: 73.3%); format: functional; settings: dose 0.33 µg/ml
Cholinesterase [39] = target: T1, Cholinesterase; test: Inhibition of human serum BuChE assessed as residual activity at IC50 using acetylcholine iodide as substrate measured after dilution by Ellman's method relative to control
Acetylcholinesterase [40] = target: Acetylcholinesterase (Electrophorus electricus, UniProt O42275); test: Inhibition of Electrophorus electricus AChE using acetylcholine iodide as substrate incubated for 15 mins by Ellman's method
[41] = Acute toxicity in Kunming mouse assessed as decrease in autonomic activity at 250 to 1000 mg/kg; format: organism-based; settings: in vivo, dose 250-1000 mg/kg
HT-22 = test: Down regulation of APP protein expression in mouse HT22 cells transfected with pEGFP-N1-APP plasmid at 10 to 20 uM by Western blot analysis; format: functional, cell-based; settings: dose 10-20 µM

T1 sequence (P06276 whole entry): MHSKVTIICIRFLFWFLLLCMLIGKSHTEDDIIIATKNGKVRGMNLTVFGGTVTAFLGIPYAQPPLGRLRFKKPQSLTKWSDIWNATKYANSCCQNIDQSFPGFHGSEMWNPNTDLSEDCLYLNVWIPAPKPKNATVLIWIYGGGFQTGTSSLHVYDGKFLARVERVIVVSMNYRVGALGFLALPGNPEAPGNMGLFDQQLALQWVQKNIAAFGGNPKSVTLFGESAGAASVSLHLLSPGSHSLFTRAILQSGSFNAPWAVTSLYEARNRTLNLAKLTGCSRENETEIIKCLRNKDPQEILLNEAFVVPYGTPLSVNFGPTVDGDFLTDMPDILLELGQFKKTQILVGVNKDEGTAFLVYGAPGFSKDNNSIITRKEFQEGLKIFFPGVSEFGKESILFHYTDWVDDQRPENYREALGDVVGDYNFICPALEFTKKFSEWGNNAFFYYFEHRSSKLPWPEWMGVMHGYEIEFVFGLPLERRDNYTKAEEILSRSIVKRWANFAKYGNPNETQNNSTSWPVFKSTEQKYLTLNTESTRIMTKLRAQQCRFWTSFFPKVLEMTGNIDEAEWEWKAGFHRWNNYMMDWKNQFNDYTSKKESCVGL
Sequence of Acetylcholinesterase (Homo sapiens, UniProt P22303) (P22303 whole entry): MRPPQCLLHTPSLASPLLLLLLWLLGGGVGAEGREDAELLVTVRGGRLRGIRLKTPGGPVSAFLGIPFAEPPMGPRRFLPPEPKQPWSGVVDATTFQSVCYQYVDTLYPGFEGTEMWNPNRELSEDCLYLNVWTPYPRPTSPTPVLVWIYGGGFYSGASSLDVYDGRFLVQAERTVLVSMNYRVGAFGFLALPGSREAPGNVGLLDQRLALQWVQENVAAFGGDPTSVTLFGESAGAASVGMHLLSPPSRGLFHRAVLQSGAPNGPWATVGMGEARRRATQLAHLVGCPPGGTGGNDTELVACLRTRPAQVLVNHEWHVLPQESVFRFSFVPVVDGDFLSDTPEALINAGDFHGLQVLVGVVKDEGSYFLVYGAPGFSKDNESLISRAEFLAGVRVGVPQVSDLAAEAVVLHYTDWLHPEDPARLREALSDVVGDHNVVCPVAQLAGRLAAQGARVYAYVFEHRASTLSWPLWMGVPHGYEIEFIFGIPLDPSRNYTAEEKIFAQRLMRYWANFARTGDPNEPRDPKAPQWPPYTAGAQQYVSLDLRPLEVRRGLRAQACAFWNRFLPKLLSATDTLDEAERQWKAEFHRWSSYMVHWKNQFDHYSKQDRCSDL
Sequence of Acetylcholinesterase (Electrophorus electricus, UniProt O42275) (O42275 whole entry): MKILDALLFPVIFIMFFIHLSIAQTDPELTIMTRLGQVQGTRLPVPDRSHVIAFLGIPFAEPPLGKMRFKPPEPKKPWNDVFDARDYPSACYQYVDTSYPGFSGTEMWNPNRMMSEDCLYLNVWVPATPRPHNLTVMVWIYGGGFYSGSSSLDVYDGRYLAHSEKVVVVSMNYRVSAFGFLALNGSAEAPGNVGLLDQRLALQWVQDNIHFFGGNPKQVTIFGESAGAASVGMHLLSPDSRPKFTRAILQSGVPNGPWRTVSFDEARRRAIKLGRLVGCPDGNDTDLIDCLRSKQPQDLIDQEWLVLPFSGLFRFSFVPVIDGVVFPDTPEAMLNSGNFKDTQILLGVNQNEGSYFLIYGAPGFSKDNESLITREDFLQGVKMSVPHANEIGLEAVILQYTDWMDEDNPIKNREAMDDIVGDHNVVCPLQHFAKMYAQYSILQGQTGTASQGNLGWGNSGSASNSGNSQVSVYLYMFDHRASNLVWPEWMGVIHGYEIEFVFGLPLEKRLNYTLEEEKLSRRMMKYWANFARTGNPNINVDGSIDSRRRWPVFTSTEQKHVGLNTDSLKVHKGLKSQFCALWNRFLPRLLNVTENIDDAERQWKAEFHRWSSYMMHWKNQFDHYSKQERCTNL

CCN(C)C(=O)Oc1ccc(/C=C/C(=O)N2CCc3ccccc3C2)cc1OC
Activity (Mus musculus [1]): 0.098 U/mg
Activity [2]: Non-Toxic
mortality at 100 ug/ml [3]: 100%
Activity [4]: 46.7%
Activity (Mus musculus [5]): Active
Activity (Danio rerio [6]): Dose-dependent effect
mortality at 25 ug/ml [7]: 100%
Papp [8]: 21.4 ×10⁻⁶ cm/s
mortality at 5 ug/ml [9]: 0%
Activity [10]: Toxic
Flu intensity [11]: 32.6
Activity [12]: Non-Toxic
mortality at 3.125 ug/ml [13]: 0%
Activity [14]: 26.7%
Drug metabolism [15]: Metabolite_Detected
Efficacy (Danio rerio [16]): 27.3%
Flu intensity [17]: 14.9
Flu intensity [18]: 33.3
Ratio IC50 [19]: 12.3
viability at 10 µM (SH-SY5Y): 83.8%
Efficacy (Danio rerio [20]): 86.3%
mortality at 2.5 ug/ml [21]: 0%
Activity (Mus musculus [22]): 0.1 U/mg
Drug metabolism [23]: Metabolite_Detected
viability at 80 µM [24]: 8.4%
viability at 50 µM [25]: 46.9%
Activity (Mus musculus [26]): Dose-dependent effect
Efficacy (Danio rerio [27]): 85.9%
IC50 (Acetylcholinesterase [28]): 10.6 µM
Flu intensity [29]: 29.8
IC50 (Cholinesterase [30]): 0.97 µM
Activity [31]: Toxic
mortality at 6.25 ug/ml [32]: 6.7%
Activity [33]: 16.7%
mortality at 12.5 ug/ml [34]: 100%
Activity [35]: 26.7%
Flu intensity [36]: 23.9
Activity [37]: 33.3%
Activity (Danio rerio [38]): 66.7%
Activity (Cholinesterase [39]): 48.2%
IC50 (Acetylcholinesterase [40]): 11.3 µM
Activity [41]: Toxic
Activity (HT-22): Active
